Biological target: T1, TNK1 kinase (Homo sapiens, UniProt Q13470)
T1 sequence (Q13470 1-666): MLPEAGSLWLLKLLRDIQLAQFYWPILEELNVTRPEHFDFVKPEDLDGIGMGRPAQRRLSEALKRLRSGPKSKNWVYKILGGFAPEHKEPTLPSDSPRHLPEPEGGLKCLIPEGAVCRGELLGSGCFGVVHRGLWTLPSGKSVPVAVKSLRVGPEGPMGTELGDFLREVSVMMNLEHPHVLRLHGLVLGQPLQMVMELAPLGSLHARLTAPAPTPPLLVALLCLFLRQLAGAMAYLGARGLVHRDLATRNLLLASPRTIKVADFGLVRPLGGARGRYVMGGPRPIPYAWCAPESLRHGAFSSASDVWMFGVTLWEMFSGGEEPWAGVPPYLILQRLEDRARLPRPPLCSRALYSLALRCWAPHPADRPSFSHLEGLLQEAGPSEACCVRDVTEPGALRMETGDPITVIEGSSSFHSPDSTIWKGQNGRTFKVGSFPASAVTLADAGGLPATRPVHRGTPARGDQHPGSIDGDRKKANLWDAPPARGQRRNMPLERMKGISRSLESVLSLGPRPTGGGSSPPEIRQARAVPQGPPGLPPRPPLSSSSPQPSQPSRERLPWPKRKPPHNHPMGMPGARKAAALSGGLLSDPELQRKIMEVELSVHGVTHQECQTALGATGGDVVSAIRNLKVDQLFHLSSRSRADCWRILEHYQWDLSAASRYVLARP
Experiment: TNK1 kinase activity inhibition assay (ADP-Glo)
Type: biochemical
Experimental: Measure compound inhibitory activity against TNK1 kinase using ADP-Glo Assay. 1× kinase reaction buffer was prepared (working concentrations: HEPES 50 mM, MgCl2 10 mM, Brij35 0.01%, EGTA 1 mM, DTT 2 mM). 2× kinase and 4× substrate buffers were prepared with the following working concentrations: For TNK1 kinase: kinase solution at 5 nM; substrate mixture containing ATP at 45 µM and MBP substrate at 0.1 mg/ mL. For ULK2 kinase: kinase solution at 0.15 nM; substrate mixture containing ATP at 6 µM and MBP substrate at 0.1 mg/mL. Compounds were serially diluted in DMSO and shaken on an orbital shaker for 20 minutes. 2× kinase solution was prepared using 1× kinase reaction buffer. 20 nL of compound solution was transferred to a 384-well plate. 2 µL of kinase solution was added to each well of the reaction plate. The plate was sealed with adhesive film, centrifuged at 1000 rpm for 60 seconds, and incubated at 25°C for 10 minutes. 2× ATP&MBP mixture was prepared using 1× kinase reaction buffer. 2 µL of 2× ATP&substrate mixture was added to the reaction plate. The plate was sealed with adhesive film, centrifuged at 1000 rpm for 60 seconds, and incubated at 25°C for 60 minutes. 4 µL of ADP-Glo reagent was transferred to the 384-well reaction plate, centrifuged at 1000 rpm for 1 minute, and incubated at 25°C for 40 minutes. 8 µL of Detection solution was transferred to the 384-well reaction plate, centrifuged at 1000 rpm for 1 minute, and incubated at 25°C for 40 minutes. Relative luminescence units (RLU) were measured using a BMG microplate reader, with signal intensity representing kinase activity level. The inhibition percentage was calculated as follows: % inhibition = 100% - [(Compound RLU - Positive Control RLU)/(Negative Control RLU - Positive Control RLU)] × 100%. The IC50 values (half-maximal inhibitory concentration) of compounds were determined by fitting the data to the following nonlinear regression equation using GraphPad Prism 7.0 software: Y = Bottom + (Top - Bottom)/(1 + 10^((LogIC50 - X) × Hill Slope)), where: X = log(compound concentration), Y = % inhibition. Table1: Inhibitory activity of compounds against ULK (IC50, nM)

CNC(=O)c1ccccc1Nc1cc(Nc2cc3c(cc2OC)N2CCN(C4CCN(C)CC4)C[C@H]2CO3)ncc1C(F)(F)F [Compound D2S]
IC50: < 10 nM
